Assay results as given in patent publication US8207131B2, “Peptide” (Megmilk Snow Brand Co., Ltd., priority 2006, dated 2012).
No end group written: not given here.

Experiments:
[1] = antioxidative activity by linoleic acid-β-carotene degradation method; format: biochemical
Experimental: The antioxidative activity of the peptide fractionated in Example 1 was measured utilizing the β-carotene degradation effect of an oxide of linoleic acid. Specifically, a 300 ml Erlenmeyer flask was charged with 0.5 ml of a β-carotene solution (1 mg/ml chloroform), 0.2 ml of a linoleic acid solution (100 mg/ml chloroform), and 1.0 ml of a Tween 40 solution (200 mg/ml chloroform). After completely removing chloroform using nitrogen gas, 100 ml of distilled water was added to dissolve the components. 9.0 ml of a 0.2 M phosphate buffer (pH: 7.0) was then added to the solution to prepare a linoleic acid-β-carotene solution. 0.18 ml of the linoleic acid-β-carotene solution was added to a […] microwell plate to which 0.02 ml of the peptide fraction was provided. The absorbance S0 at 490 nm was measured immediately after the addition. When preparing the linoleic acid-β-carotene solution, the amount of the β-carotene solution was appropriately adjusted so that the absorbance S0 was about 1.2 (1.1 to 1.3). The microwell plate was placed in a thermostat bath at 50° C. immediately after measuring the absorbance S0, and the peptide fraction was incubated for 30 minutes. The absorbance S30 was measured immediately after incubation. A decrease (ΔS=S0−S30) in absorbance at 490 nm over 30 minutes was then calculated. 70% ethanol was used as a blank instead of the sample and subjected to the above operation. Specifically, the absorbance B0 immediately after adding the linoleic acid-β-carotene solution and the absorbance B30 after being kept at 50° C. for 30 minutes were measured, and a decrease (ΔB=B0−B30) in absorbance at 490 nm over 30 minutes was calculated. The antioxidative activity (antioxidation rate (%)) was determined by substituting the resulting values in the following expression. Antioxidation rate (%)=[ΔB−ΔS]/(ΔB)×100
As a positive control, carnosine (β-Ala-L-His; manufactured by Peptide Institute, Inc.) (muscle-derived antioxidative peptide) prepared to a concentration of 0.01 μg/ml, 0.1 μg/ml, or 1 μg/ml was used.
The antioxidative activity of the peptide obtained in Example 2 was measured in the same manner as in Test Example 1. As a positive control, carnosine (β-Ala-L-His; manufactured by Peptide Institute, Inc.) (muscle-derived antioxidative peptide) and catechin (manufactured by Wako Pure Chemical Industries, Ltd.) (1 μm, 10 μm, or 100 μm) were used. Table 2 and FIG. 3 show the evaluation results for the antioxidative activity of the synthetic peptide.
The antioxidative activities of the two peptides (i.e., tryptic digests) obtained in Examples 3 and the tryptic digest before fractionation were measured using a carotene degradation method in the same manner as in Test Example 2. The peptide concentration was determined by dissolving each peptide in 500 μl of pure water and measuring the peptide concentration using a Micro BCA Protein assay kit (manufactured by Pierce). As a positive control, carnosine (β-Ala-L-His; manufactured by Peptide Institute, Inc.) and catechin (manufactured by Wako Pure Chemical Industries, Ltd.) were used in the same manner as in Test Example 2. A diluted solution (1 ng/ml, 10 ng/ml, and 100 ng/ml) was prepared for each fragment, and the antioxidative activity was evaluated using the β-carotene degradation method.

[2] = test system: rat primary-cultured visceral fat cells (VAC01); experiment: peptide adipocyte administration experiment; format: cell-based
Experimental: Experiments were conducted in which the peptide isolated from the cheese in Example 1 was administered to primary-cultured visceral fat cells.
The experiments were conducted using rat primary-cultured visceral fat cells (VAC01, manufactured by Cell Garage Co., Ltd.) and a visceral fat cytodifferentiation medium (manufactured by Cell Garage Co., Ltd.). Cells preserved in a frozen state in accordance with the protocol provided by Cell Garage Co., Ltd. were melted and disseminated in a 24-well plate (zeroth day). A culture medium (peptide concentration: 100 μM, 50 μM, 10 μM, or 0 μM) in which the synthetic peptide was dissolved was added to the 24-well plate on the second day, fifth day, and seventh day, and the synthetic peptide was cultured. The culture supernatant liquid was collected on the fifth day, seventh day, and eighth day to measure the adiponectin level. The cells were collected on the eighth day. The enzyme activity of glycerol-3-phosphate dehydrogenase (GPDH) in the cells, the DNA content of each well, and the intracellular fat accumulation level were measured. GPDH is an enzyme that functions when triglyceride is synthesized from glucose to produce mature fat cells. In this example, preadipocytes were differentiated, and the effect of administration of the peptide according to the present invention was observed.
The DNA content was determined using a DNA quantization kit (manufactured by Cell Garage Co., Ltd.).
The glycerol-3-phosphate dehydrogenase (GPDH) enzyme activity in the cells was measured using a GPDH activity measurement kit (manufactured by Cell Garage Co., Ltd.) in accordance with the protocol provided by Cell Garage Co., Ltd. The measurement results were standardized by the content of DNA extracted from each well.
The adiponectin level in the culture supernatant liquid was measured using an adiponectin ELISA kit (manufactured by Otsuka Pharmaceutical Co., Ltd.). The measurement results were standardized by the content of DNA extracted from each well.
The intracellular fat accumulation was determined by fat staining with oil red O and absorbance measurement using a fat staining kit (manufactured by Cell Garage Co., Ltd.).

[3] = sample concentration 0.01 μg/ml, Test Example 1
[4] = sample concentration 0.1 μg/ml, Test Example 1
[5] = sample concentration 1 μg/ml, Test Example 1
[6] = sample concentration 1 μg/ml, Test Example 2
[7] = sample concentration 10 μg/ml, Test Example 2
[8] = sample concentration 100 μg/ml, Test Example 2
[9] = Test Example 3, tryptic digest peptides, 1, 10, 100 ng/ml, FIG. 5

NCCC(=O)N[C@@H](Cc1cnc[nH]1)C(=O)O [Carnosine, β-Ala-L-His, reference compound]
Antioxidative activity (%) [1, 3]: 32.9% | Antioxidative activity (%) [1, 4]: 57.8% | Antioxidative activity (%) [1, 5]: 78.3% | Antioxidative activity (%) [1, 6]: 7.07% | Antioxidative activity (%) [1, 7]: 21.2% | Antioxidative activity (%) [1, 8]: 48.41%

HQGLPQ
antioxidative activity (in words) [1, 9]: strong antioxidative activity

HPIKHQGLPQ
antioxidative activity (in words) ([1]; Test Example 1, peptide purified from Gouda cheese): had antioxidative activity (radical scavenger activity) | antioxidative activity (in words) ([1]; Test Example 2, synthetic peptide, FIG. 3): strong antioxidative activity | Antioxidative activity (%) [1, 3]: 13.0% | Antioxidative activity (%) [1, 4]: 41.0% | Antioxidative activity (%) [1, 5]: 64.6% | Antioxidative activity (%) [1, 6]: 32.86% | Antioxidative activity (%) [1, 7]: 61.13% | Antioxidative activity (%) [1, 8]: 63.6% | production of adiponectin (per unit DNA content) vs cells without peptide ([2]; culture supernatant, seventh day, 10, 50, 100 μM, FIG. 6): significantly more adiponectin | cell DNA content of each well vs group without peptide ([2]; eighth day, Student t-test): a significant difference in cell DNA content was not observed | fat accumulation (oil red O staining) vs cells without peptide ([2]; eighth day, Student t-test, FIG. 7): a significant difference in fat accumulation was not observed | GPDH activity (per unit DNA content) vs group without peptide ([2]; peptide 100 μM, eighth day): A significant difference was not observed | fat accumulation (oil red O staining) ([2]; peptide 100 μM, eighth day): decreased to only a small extent | GPDH activity (per unit DNA content) vs group without peptide ([2]; peptide 10 or 50 μM, eighth day): significantly higher

His-Pro-Ile-Lys (HPIK; Bovine)
antioxidative activity (in words) [1, 9]: strong antioxidative activity

catechin [reference compound]
Antioxidative activity (%) [1, 6]: 52.65% | Antioxidative activity (%) [1, 7]: 84.45% | Antioxidative activity (%) [1, 8]: 97.17%
